Measurements taken from a melting point compilation (Tetko et al.; mined from patent text by program, amines drawn as free bases though some values may be those of a salt).

| Structure (SMILES) | melting point [°C] |
| --- | --- |
| CC(C)c1nc(C(=O)NC2CC2)c(C(=O)O)o1 | 109 to 112 |
| OCc1cc2cc(-c3ccsc3)ccc2o1 | 122 to 124 |
| CCCCCCCNc1cccc2c1CN(c1cc(C)cc(C)c1)C2=O | 68 to 69 |
| CCOC(=O)Cn1c(C)cc2c1CCCC2=O | 101 to 104 |
| CCCOc1ccc(-c2c(C(=O)OC)c(C(=O)OC)c(O)c3cc(OC)c(OC)c(OC)c23)cc1OCCC | 132 |
| COc1cc2c(cc1OC)/C(=N/OCc1ccc3nonc3c1)CCC2 | 139 to 140 |
| Cc1c[nH]c(Nc2ccc(C3=NNC(=O)CC3C)cc2)nc1=O (stereo not given) | 260 to 270 |
| COc1ccccc1CN[C@H]1CCCN[C@H]1c1ccoc1 (relative stereo) | > 247 |
| Cc1cc(=O)n2c3c(cc(C(O)(C(F)(F)F)C(F)(F)F)cc13)CC2 | 337 to 338 |
| CCCCCC(=O)Nc1ccc2ccn(CCCCCCCC(=O)OC)c2c1 | 61 to 63 |
| OCC1(CO)CC=CC1 | 168 to 170 |
| O=C(N[C@H]1CC[C@H](CCN2CCN(c3nccc4c3CCO4)CC2)CC1)c1ccc(N2CCCCC2)cc1 | 214 |
| CC(=O)NCCOC(=O)C1CCn2c1cc(C)c2C(=O)c1ccc(Cl)n1C (stereo not given) | 156 to 157 |
| Nc1ccc(OC(F)(F)C(F)F)cc1[N+](=O)[O-] | 83.9 to 84.4 |
| CCOc1cc2c(cc1S(=O)(=O)c1ccccc1)[C@@H](N1CCCC1=O)[C@H](O)C(C)(C)O2 (relative stereo) | 197 to 198 |
| O=C(Sc1ccccn1)c1c(F)c(F)c(F)c(F)c1F | 51 |
| CCOP(=O)(COCCOn1cnc2c(N)ncnc21)OCC | 74 to 76 |
| CCCOc1cc2c(=O)cc(C(=O)O)[nH]c2ccc1=O | > 250 |
| N#Cc1cc(F)c(NN=CC(=O)C(F)(F)F)nc1Cl | 174 to 176 |
| Cc1nc2ccccn2c(=O)c1CCN1CCc2oc3ccccc3c2C1 | 186 |
| CCC(NC(=O)c1ccccc1)C(=O)OC1CCCCC1 (stereo not given) | 60 to 63 |
| Cn1nc(-c2cc(C(=O)O)c(Cl)cc2F)c(C=O)c1C(F)(F)F | 163 |
| CCOC(=O)CCCCCN1C(=O)c2cccc3cc(N)cc(c23)C1=O | 108 to 110 |
| COc1ccc2c(N)c([N+](=O)[O-])sc2c1 | > 250 |
| CCCCCCCCCCCC(=O)c1ccc(CCOC(C)=O)cc1 | 32 to 33 |
| CCOC(=O)c1ccc(OC(F)F)cc1SC | 83 to 85 |
| CCn1c(=O)c2[nH]c(/C=C/c3ccc(C)cc3)nc2n(CC)c1=O | > 280 |

The remaining lines, values ahead:

| melting point [°C] | Structure (SMILES) |
| --- | --- |
| 220 to 221 | O=C(C(=O)c1ccc(Oc2ccc(O)cc2)cc1)c1ccc(Oc2ccc(O)cc2)cc1 |
| 155 to 157 | O=Cc1ccc(-c2ccc(-c3ccsc3)s2)s1 |
| 74 to 75 | O=C(O)CCCCOc1ccccc1OCc1ccccc1 |
| 204 to 206 | Cn1c(=O)c(N=C=O)c(-c2ccccc2Cl)c2cc(Cl)ccc21 |
| 192 to 194 | NS(=O)(=O)c1ccc(-n2cc(-c3ccccc3)cc2-c2ccc(F)cc2)cc1 |
| 141 to 142 | CC1(C)CC(=C(c2ccc(O)cc2)c2ccc(C#CCO)cc2)CC(C)(C)C1 |
| 100 to 102 | COc1ccc(C2=NN(c3ccc(-c4nnn(Cc5ccccc5)n4)cc3)C(=O)[C@H]3CC=CC[C@@H]23)cc1OC (relative stereo) |
| 193 to 195 | C=Cc1ccc(-c2cc(NC(=O)C3Cc4ccccc4C3)n[nH]2)cc1 |
| 186 to 188 | O=C(O)c1cc(-n2c(-c3ccccc3)cc3c2CCCC3)ccc1S |
| 214 | N#CCOc1cc2c(cc1C#Cc1ccccc1)NC(=O)CC(c1cccc(-n3ccnc3)c1)=N2 |
| 217 to 219 | COc1ccc(-c2c3c(cc4ccc5c(c24)OCO5)C(=O)OC3)cc1 |
| 162 to 164 | CC(=Cc1ccc2ccc3cccc4ccc1c2c34)c1ccc(Cl)cc1 |
| 142 to 145 | CC1c2ccccc2CC(O)Cc2ccccc21 (stereo not given) |
